Assays:
[1] = Dynamic Vapor Sorption (DVS) isothermal water sorption and desorption; format: physicochemical; conditions: 25° C. and 80% RH
Description: The solubility advantage imparted by a specific salt form of bromantane compared to the free base form cannot be predicted with certainty because the interactions of the counterion with the therapeutic agent and dissolution medium are unique and complex. Empirical testing is necessary. Dynamic Vapor Sorption (DVS) testing was performed to compare the isothermal water sorption and desorption behaviors of bromantane free base Form I [FIG. 22] with that of bromantane hydrochloride Form I [FIG. 23].

[2] = Onset of therapeutic effect after oral administration; format: in vivo; conditions: orally administered
Excerpt: The objective of the present disclosure is to improve the standard of care in treating mental disorders, such as StUD, by facilitating extinction learning through the administration of a therapeutically effective amount of bromantane or an analogue thereof. While bromantane or an analogue of bromantane can be administered uncompounded, administering a pharmaceutical preparation that ensures consistent absorption and fosters patient adherence to the treatment regimen is advantageous. For example, the onset of therapeutic effect for orally administered crystalline bromantane free base is slow (2-3 hours) due to solubility-limited absorption and high first-pass extraction. Preparations that improve bromantane's solubility or bioavailability to produce a faster onset of therapeutic effect are advantageous for addressing acute incentive salience expeditiously in the treatment of StUD, thereby increasing the likelihood of patient adherence to the treatment regimen and reducing the likelihood of relapse. Accordingly, the present disclosure also provides novel, advantageous pharmaceutical preparations of bromantane and their methods of use.

[3] = Aqueous equilibrium solubility, slurry in water, HPLC of supernatant; format: physicochemical; conditions: 24 hours of equilibration at room temperature
[4] = test system: participants who had self-reported drug dependencies to a drug of concern; test: Exploratory study of bromantane intervention in participants with self-reported drug dependencies; format: in vivo, human
Description: To investigate the utility of bromantane as a single-agent pharmacological intervention to interrupt stimulant dependence, an exploratory study was conducted with participants who had self-reported drug dependencies to a drug of concern. The intervention consisted of Test Article (bromantane) administered at a dose of 50 mg qd po for 7 days, starting on the first day of Week 1 of the study. Results from the exploratory study are summarized in [FIG. 2]. The number of days the drug of concern was used by the participant during each 1-week period during the 4-week study is shown in the Drug Dependency column.
In addition to being an effective single-agent pharmacological intervention to interrupt stimulant dependence, it was discovered that bromantane has utility as a treatment for certain comorbidities that are specifically underpinned by maladaptive learning, such as occupational burnout exacerbated by conditioned fear responses and attention-deficit/hyperactivity disorder arising from inhibitory control dysfunction. […] Therefore, the present disclosure also provides novel therapeutic methods of use for bromantane to facilitate extinction learning in the treatment of mental disorders or syndromes.

[5] = participants with cocaine or amphetamine dependencies, 50 mg qd po for 7 days, 4-week study

Compound	hygroscopicity (water gain by DVS) [1]	onset of therapeutic effect [2]	equilibrium solubility in water (solution state concentration of bromantane) [3]	cravings and withdrawal syndrome associated with addiction to stimulants of abuse ([4]; amphetamine, methamphetamine, cocaine)	counterproductive behaviors and thought patterns triggered by conditioned stimuli ([4]; analysis of subjective effects reported by participants)	secondary dependence ([4]; in vivo)	opioid use ([4]; participant with opioid dependence, during the period of intervention, 50 mg qd po for 7 days)	abstinence from drug of concern [4, 5]	duration of maintained abstinence [4, 5]	caffeine use ([4]; participants, 50 mg qd po for 7 days)	insomnia caused by rumination ([4]; self-reported by participants)	temperament (threshold for irritability or anger) ([4]; self-reported by participants)
Brc1ccc(NC2C3CC4CC(C3)CC2C4)cc1 (stereo not drawn) [bromantane free base Form I]	non-hygroscopic (x<0.2% w/w gain at 25 °C and 80% RH)	2 to 3 h	below the detection limit									
Brc1ccc(NC2C3CC4CC(C3)CC2C4)cc1 (stereo not drawn) [bromantane]				eliminates or significantly reduces	pronounced reduction	without leading to secondary dependence	reduction in opioid use	achieved abstinence on the first day of intervention	maintain abstinence for approximately three weeks	unplanned reduction in caffeine use	Alleviation of insomnia	improved temperaments

From patent US20260191802A1, “DRUG TO TREAT STIMULANT ADDICTION” (SINGLE DOSE THERAPEUTICS, INC., priority 2023, published 2026)
